Results taken from US6849653B2, “Substituted pyrazolyl benzenesulfamide compounds for the treatment of inflammation” (Pharmacia Corporation, priority 2001, dated 2005).
pIC50: −log10 of the molar value.

target: T1, rhIKK1/IKK2 heterodimer (Homo sapiens, UniProt O14920+O15111); test: IKK Heterodimer Resin Enzyme Assay; type: biochemical; settings: not given
T1 construct: made in house; host or cells: insect cells (baculovirus coinfection; SF9)
T1 sequence (O14920 1-756): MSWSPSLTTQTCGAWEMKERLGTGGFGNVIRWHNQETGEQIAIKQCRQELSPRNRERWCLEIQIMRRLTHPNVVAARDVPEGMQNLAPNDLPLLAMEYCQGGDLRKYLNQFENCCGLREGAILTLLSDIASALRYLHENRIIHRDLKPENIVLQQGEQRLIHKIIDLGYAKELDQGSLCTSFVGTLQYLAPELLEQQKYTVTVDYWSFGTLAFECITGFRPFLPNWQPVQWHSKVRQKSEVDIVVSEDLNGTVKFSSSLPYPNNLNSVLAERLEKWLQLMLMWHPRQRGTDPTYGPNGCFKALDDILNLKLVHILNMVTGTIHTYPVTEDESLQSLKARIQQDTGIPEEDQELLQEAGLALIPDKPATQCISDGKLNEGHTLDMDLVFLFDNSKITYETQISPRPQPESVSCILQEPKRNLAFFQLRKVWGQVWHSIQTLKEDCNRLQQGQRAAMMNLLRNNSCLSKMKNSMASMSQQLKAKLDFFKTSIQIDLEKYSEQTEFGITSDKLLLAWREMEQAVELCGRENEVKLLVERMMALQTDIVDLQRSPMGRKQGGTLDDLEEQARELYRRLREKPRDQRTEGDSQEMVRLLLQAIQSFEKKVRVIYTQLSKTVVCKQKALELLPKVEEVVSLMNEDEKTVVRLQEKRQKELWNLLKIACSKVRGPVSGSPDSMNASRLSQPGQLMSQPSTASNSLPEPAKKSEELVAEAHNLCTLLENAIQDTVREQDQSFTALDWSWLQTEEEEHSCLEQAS
T1 sequence (O15111 1-745): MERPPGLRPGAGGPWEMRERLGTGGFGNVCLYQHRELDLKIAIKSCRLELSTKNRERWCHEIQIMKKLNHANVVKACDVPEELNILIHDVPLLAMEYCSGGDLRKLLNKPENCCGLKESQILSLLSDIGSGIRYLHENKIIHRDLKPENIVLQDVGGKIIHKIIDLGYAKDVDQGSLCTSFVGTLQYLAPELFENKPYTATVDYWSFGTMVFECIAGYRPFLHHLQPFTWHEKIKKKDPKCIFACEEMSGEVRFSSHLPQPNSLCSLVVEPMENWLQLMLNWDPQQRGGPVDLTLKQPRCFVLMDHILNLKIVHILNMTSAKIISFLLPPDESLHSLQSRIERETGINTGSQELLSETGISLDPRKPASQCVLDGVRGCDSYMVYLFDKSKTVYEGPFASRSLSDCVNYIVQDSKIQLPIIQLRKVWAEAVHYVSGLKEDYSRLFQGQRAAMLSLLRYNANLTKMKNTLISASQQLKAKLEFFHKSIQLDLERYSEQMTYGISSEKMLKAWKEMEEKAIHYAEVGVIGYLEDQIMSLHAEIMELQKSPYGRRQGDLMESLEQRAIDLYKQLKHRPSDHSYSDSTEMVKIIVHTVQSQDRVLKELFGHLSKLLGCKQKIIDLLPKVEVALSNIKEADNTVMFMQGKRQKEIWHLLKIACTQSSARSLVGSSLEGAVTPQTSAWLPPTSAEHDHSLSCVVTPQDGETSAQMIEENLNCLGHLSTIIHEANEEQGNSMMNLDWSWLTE
Description: cDNAs of human IKK1 and IKK2 were amplified by reverse transcriptase-polymerase chain reaction from human placental RNA (Clonetech). hIKK1 was subcloned into pFastBac HTa (Life Technologies) and expressed as N-terminal His6-tagged fusion protein. The hIKK2 cDNA was amplified using a reverse oligonucleotide primer which incorporated the peptide sequence for a FLAG-epitope tag at the C-terminus of the IKK2 coding region ([…]). The hIKK2:FLAG cDNA was subcloned into the baculovirus vector pFastBac. The rhIKK2 ([…]) mutant was constructed in the same vector used for wild type rhIKK2 using a QuikChange™ mutagenesis kit (Stratagene). Viral stocks of each construct were used to infect insect cells grown in 40L suspension culture. […] Cell lysates were stored at −80° C. until purification of the recombinant proteins was undertaken as described below.
Isolation of rhIKK1/IKK2 Heterodimer
The heterodimer enzyme was produced by coinfection in a baculovirus system (FLAG IKK2/IKK1 His; MOI=0.1 and I=72 hrs). Infected cells were centrifuged and the cell pellet (10.0 g) was suspended in 50 ml of buffer A. The protein suspension was microfluidized and centrifuged at 100,000×g for 45 min. Imidazole was added to the supernatant to a final concentration of 10 mM. The protein was allowed to bind 25 ml of Ni-NTA resin by mixing for 2 hrs. The protein-resin slurry was poured into a 25 ml column and washed with 250 ml of buffer A containing 10 mM imidazole followed by 125 ml of buffer A containing 50 mM imidazole. Buffer A, containing 300 mM imidazole, was then used to elute the protein. A 75 ml pool was collected and NP-40 was added to a final concentration of 0.1%. […] The protein-resin slurry was then centrifuged for 5 min at 2,000 rpm. The supernatant was collected and the resin re-suspended in 100 ml of buffer C containing 0.1% NP-40. The resin was washed with 375 ml of buffer C containing 0.1% NP-40. The protein-resin was poured into a 25 ml column and the enzyme eluted using buffer B containing FLAG peptide. Enzyme fractions (100 ml) were collected and concentrated to 20 ml using an Amicon membrane with molecular weight cut-off of 30 kDa. Bovine serum albumin was added to the concentrated enzyme to final concentration of 0.1%. The enzyme was then aliquoted and stored at −80° C.
IKK Heterodimer Resin Enzyme Assay
Resin was allowed to settle for one hour and 50 ul of supernatant was removed to a Micolite-2 flat bottom plate (Dynex). 150 μl of scintillation fluid (Microscint 40) (Packard) was added to each well. Incorporation of [γ-^33P] ATP was measured using a Top-Count NXT (Packard).

pIC50 | Molecule
5.00 to 6.00 | COc1ccccc1C(=O)Nc1ccc2ccc3c(C(N)=O)nn(-c4ccc(S(N)(=O)=O)cc4)c3c2c1 [Example 25, 1-[4-(aminosulfonyl)phenyl]-8-[(2-methoxybenzoyl)amino]-1H-benzo[g]indazole-3-carboxamide]

same assay, conditions: Table 1; values given as bins; read-out: HetD (IKK heterodimer assay values expressed as IC50)

Molecule | pIC50
NC(=O)c1nn(-c2ccc(S(N)(=O)=O)cc2)c2c1ccc1ccc(NS(=O)(=O)c3cccc(C(F)(F)F)c3)cc12 [Example 19, 1-[4-(aminosulfonyl)phenyl]-8-({[3-(trifluoromethyl)phenyl]sulfonyl}amino)-1H-benzo[g]indazole-3-carboxamide] | 4.00 to 5.00
CS(=O)(=O)Nc1ccc2ccc3c(C(N)=O)nn(-c4ccc(S(N)(=O)=O)cc4)c3c2c1 [Example 21, 1-[4-(aminosulfonyl)phenyl]-8-[(methylsulfonyl)amino]-1H-benzo[g]indazole-3-carboxamide] | ≥ 6.00
NC(=O)c1nn(-c2ccc(S(N)(=O)=O)cc2)c2c1ccc1ccc(NC(=O)c3cccc(Cl)c3)cc12 [Example 9, 1-[4-(aminosulfonyl)phenyl]-8-[(3-chlorobenzoyl)amino]-1H-benzo[g]indazole-3-carboxamide] | ≥ 6.00
NC(=O)c1nn(-c2ccc(S(N)(=O)=O)cc2)c2c1ccc1ccc(NC(=O)c3cccnc3)cc12 [Example 13, 1-[4-(aminosulfonyl)phenyl]-8-[(pyridin-3-ylcarbonyl)amino]-1H-benzo[g]indazole-3-carboxamide] | ≥ 6.00
NC(=O)c1nn(-c2ccc(S(N)(=O)=O)cc2)c2c1ccc1ccc(NS(=O)(=O)c3cccc(Cl)c3)cc12 [Example 16, 1-[4-(aminosulfonyl)phenyl]-8-{[(3-chlorophenyl)sulfonyl]amino}-1H-benzo[g]indazole-3-carboxamide] | 5.00 to 6.00
NC(=O)c1nn(-c2ccc(S(N)(=O)=O)cc2)c2c1ccc1ccc(NC(=O)c3cccnc3Cl)cc12 [Example 32, 1-[4-(aminosulfonyl)phenyl]-8-{[(2-chloropyridin-3-yl)carbonyl]amino}-1H-benzo[g]indazole-3-carboxamide] | ≥ 6.00
Cc1ccccc1C(=O)Nc1ccc2ccc3c(C(N)=O)nn(-c4ccc(S(N)(=O)=O)cc4)c3c2c1 [Example 27, 1-[4-(aminosulfonyl)phenyl]-8-[(2-methylbenzoyl)amino]-1H-benzo[g]indazole-3-carboxamide] | ≥ 6.00
NC(=O)c1nn(-c2ccc(S(N)(=O)=O)cc2)c2c1ccc1ccc(NC(=O)c3ccncc3)cc12 [Example 34, 1-[4-(aminosulfonyl)phenyl]-8-(isonicotinoylamino)-1H-benzo[g]indazole-3-carboxamide] | ≥ 6.00
NC(=O)c1nn(-c2ccc(S(N)(=O)=O)cc2)c2c1ccc1ccc(NC(=O)c3c(Cl)cccc3Cl)cc12 [Example 28, 1-[4-(aminosulfonyl)phenyl]-8-[(2,6-dichlorobenzoyl)amino]-1H-benzo[g]indazole-3-carboxamide] | ≥ 6.00
8-amino-1-{4-[(aminothio)peroxy]phenyl}-1H-benzo[g]indazole-3-carboxamide [Example 4c] | ≥ 6.00

Continued, values first:

pIC50 | Molecule
≥ 6.00 | NC(=O)c1nn(-c2ccc(S(N)(=O)=O)cc2)c2c1ccc1ccc(NC(=O)c3cccc(Cl)c3Cl)cc12 [Example 30, 1-[4-(aminosulfonyl)phenyl]-8-[(2,3-dichlorobenzoyl)amino]-1H-benzo[g]indazole-3-carboxamide]
5.00 to 6.00 | NC(=O)c1nn(-c2ccc(S(N)(=O)=O)cc2)c2c1ccc1ccc(NS(=O)(=O)c3cc(Cl)c(Cl)cc3Cl)cc12 [Example 23, 1-[4-(aminosulfonyl)phenyl]-8-{[(2,4,5-trichlorophenyl)sulfonyl]amino}-1H-benzo[g]indazole-3-carboxamide]
5.00 to 6.00 | NC(=O)c1nn(-c2ccc(S(N)(=O)=O)cc2)c2c1ccc1ccc(NC(=O)c3cccc(C(F)(F)F)c3)cc12 [Example 10, 1-[4-(aminosulfonyl)phenyl]-8-{[3-(trifluoromethyl)benzoyl]amino}-1H-benzo[g]indazole-3-carboxamide]
≥ 6.00 | NC(=O)c1nn(-c2ccc(S(N)(=O)=O)cc2)c2c1ccc1ccc(NC(=O)c3cccc(Br)c3)cc12 [Example 12, 1-[4-(aminosulfonyl)phenyl]-8-[(3-bromobenzoyl)amino]-1H-benzo[g]indazole-3-carboxamide]
5.00 to 6.00 | NC(=O)c1nn(-c2ccc(S(N)(=O)=O)cc2)c2c1ccc1ccc(NS(=O)(=O)c3cc(C(F)(F)F)cc(C(F)(F)F)c3)cc12 [Example 24, 1-[4-(aminosulfonyl)phenyl]-8-({[3,5-bis(trifluoromethyl)phenyl]sulfonyl}amino)-1H-benzo[g]indazole-3-carboxamide]
≥ 6.00 | Cc1cccc(C(=O)Nc2ccc3ccc4c(C(N)=O)nn(-c5ccc(S(N)(=O)=O)cc5)c4c3c2)c1 [Example 11, 1-[4-(aminosulfonyl)phenyl]-8-[(3-methylbenzoyl)amino]-1H-benzo[g]indazole-3-carboxamide]
≥ 6.00 | NC(=O)c1nn(-c2ccc(S(N)(=O)=O)cc2)c2c1ccc1ccc(NC(=O)c3ccccc3Cl)cc12 [Example 14, 1-[4-(aminosulfonyl)phenyl]-8-[(2-chlorobenzoyl)amino]-1H-benzo[g]indazole-3-carboxamide]
5.00 to 6.00 | NC(=O)c1nn(-c2ccc(S(N)(=O)=O)cc2)c2c1ccc1ccc(NS(=O)(=O)c3cccc(Br)c3)cc12 [Example 15, 1-[4-(aminosulfonyl)phenyl]-8-{[(3-bromophenyl)sulfonyl]amino}-1H-benzo[g]indazole-3-carboxamide]
≥ 6.00 | N#Cc1cccc(C(=O)Nc2ccc3ccc4c(C(N)=O)nn(-c5ccc(S(N)(=O)=O)cc5)c4c3c2)c1 [Example 17, 1-[4-(aminosulfonyl)phenyl]-8-[(3-cyanobenzoyl)amino]-1H-benzo[g]indazole-3-carboxamide]
≥ 6.00 | C=CCN(CC=C)S(=O)(=O)c1ccc(-n2nc(C(N)=O)c3ccc4ccc(N)cc4c32)cc1 [Example 7, 8-amino-1-{4-[(diallylamino)sulfonyl]phenyl}-1H-benzo[g]indazole-3-carboxamide]
